The target in the experiment is T1, Human MDM2 (HDM2) 1-116 (Homo sapiens, UniProt Q00987).
T1 construct: Human MDM2 (HDM2) 1-116
Briefly: Fluorescence polarization assay, MDM2/p53 (Table 3). Format: binding. The method, then: (§1) Human MDM2 (HDM2) 1-116 (20 μL) and FITC-labeled p53 (18-26), 50 nM and 10 nM respectively in 10 mM Tris, 50 mM NaCl, 0.01% Tween20, and 1 mM DTT at pH 7.4 were dispensed into an opaque, black, 384 well plate. Compounds dissolved in DMSO were pin transferred (˜200 nL) to the 384 well plate containing the MDM2/p53 solution. After incubation for 10 minutes, the fluorescence polarization was read on a Molecular Devices SpectraMax plate reader equipped with a Fluorescein FP cartridge. In addition to probe alone (positive control) and probe/MDM2 (negative control), a titration of linear p53(18-26) was included on every plate as an additional control. IC50 values were fit using either Prism or Collaborative Drug Discovery.
as §1, with “and FAM-labeled RFMDYWEGL-NH2,” for “and FITC-labeled p53 (18-26),”, “NaCl, 0.010%” for “NaCl, 0.01%”, “transferred (˜100-200” for “transferred (˜200”, “for 60” for “for 10”
A general note: In fluorescence polarisation assays a small probe gives low polarisation when free and higher when bound to something large.

We go through five compounds from patent US20220411471A1, “CELL-PERMEABLE CYCLIC PEPTIDES AND USES THEREOF” (Unnatural Products Inc., priority 2019, published 2022).

Starred links: 1 amine or outer side, 2 acyl side, 3 side chain; linkers in the order of their positions; H or OH if unused. Non-standard residues stand in square brackets, D forms with d. Residues, ends and D or L forms follow the SMILES beside them. Trp(6-Cl) = N[C@@H](Cc1c[nH]c2cc(Cl)ccc12)C(=O)O; Azetidine3carboxylic = O=C(C1CN([*:1])C1)[*:2]; Phe(4-Cl) = N[C@@H](Cc1ccc(Cl)cc1)C(=O)O; Phe(4-F) = N[C@@H](Cc1ccc(F)cc1)C(=O)O; 3Pal = N[C@@H](Cc1cccnc1)C(=O)O; 2Thi = N[C@@H](Cc1cccs1)C(=O)O; NMeL = CN[C@@H](CC(C)C)C(=O)O; Tle = CC(C)(C)[C@H](N)C(=O)O; dPip = O=C(O)[C@H]1CCCCN1; NMeA = CN[C@@H](C)C(=O)O; Nme = COCCNCC(=O)O Some results are limits rather than exact numbers.

T1 sequence (Q00987 1-116): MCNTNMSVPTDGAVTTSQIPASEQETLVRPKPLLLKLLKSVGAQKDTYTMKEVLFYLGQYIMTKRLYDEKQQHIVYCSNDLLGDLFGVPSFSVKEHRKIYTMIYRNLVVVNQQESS

A word on the IC50: it is the midpoint of a concentration-inhibition curve. Read a low IC50 as greater potency. On to `C[C@H]1C(=O)N[C@@H](Cc2ccc(Cl)cc2)C(=O)N2CCCC[C@@H]2C(=O)N2CCC[C@H]2C(=O)N[C@@H](Cc2ccccc2)C(=O)N[C@@H](CCC(=O)O)C(=O)N[C@@H](Cc2ccc(O)cc2)C(=O)N2CCC[C@@H]2C(=O)N(C)[C@@H](C)C(=O)N[C@@H](Cc2ccc(F)cc2)C(=O)N1C` [Compound 8, [H]OC(=O)CC[C@@H]1NC(=O)[C@H](Cc2ccccc2)NC(=O)[C@@H]2CCCN2C(=O)[C@H]2CCCCN2C(=O)[C@H](Cc2ccc(Cl)cc2)NC(=O)[C@H](C)N(C)C(=O)[C@H](Cc2ccc(F)cc2)NC(=O)[C@H](C)N(C)C(=O)[C@H]2CCCN2C(=O)[C@H](Cc2ccc(O[H])cc2)NC1=O] (cyclo(EY[dP][NMeA][Phe(4-F)][NMeA][Phe(4-Cl)][dPip]PF)), for which the IC50 fell in the range of 2500 to 5000 nM. In the case of `CC(C)C[C@H]1C(=O)N[C@@H](CC(=O)O)C(=O)N[C@@H](Cc2c[nH]c3ccccc23)C(=O)N[C@@H](CCC(=O)O)C(=O)N[C@@H](Cc2ccccc2)C(=O)N2CCC[C@@H]2C(=O)N2CCC[C@H]2C(=O)N[C@@H](Cc2ccc(F)cc2)C(=O)N[C@@H](CCC(=O)O)C(=O)N[C@@H](Cc2ccc(Cl)cc2)C(=O)N1C` [Compound 6, [H]OC(=O)CC[C@@H]1NC(=O)[C@H](Cc2cn([H])c3ccccc23)NC(=O)[C@H](CC(=O)O[H])NC(=O)[C@H](CC(C)C)N(C)C(=O)[C@H](Cc2ccc(Cl)cc2)NC(=O)[C@H](CCC(=O)O[H])NC(=O)[C@H](Cc2ccc(F)cc2)NC(=O)[C@@H]2CCCN2C(=O)[C@H]2CCCN2C(=O)[C@H](Cc2ccccc2)NC1=O] (cyclo([Phe(4-F)]E[Phe(4-Cl)][NMeL]DWEF[dP]P)) it was less than 1000 nM; in that of `COCCN1CC(=O)N(C)[C@@H](C)C(=O)N[C@@H](Cc2ccc(F)cc2)C(=O)N(C)[C@@H](C)C(=O)N[C@@H](Cc2ccc(Cl)cc2)C(=O)N2CCCC[C@@H]2C(=O)N2CCC[C@H]2C(=O)N[C@@H](Cc2cccs2)C(=O)N[C@@H](C(C)(C)C)C(=O)N[C@@H](Cc2cccnc2)C1=O` [Compound 20, COCCN1CC(=O)N(C)[C@@H](C)C(=O)N[C@@H](Cc2ccc(F)cc2)C(=O)N(C)[C@@H](C)C(=O)N[C@@H](Cc2ccc(Cl)cc2)C(=O)N2CCCC[C@@H]2C(=O)N2CCC[C@H]2C(=O)N[C@@H](Cc2cccs2)C(=O)N[C@H](C(=O)N[C@@H](Cc2cccnc2)C1=O)C(C)(C)C] (cyclo([2Thi][Tle][3Pal][Nme][NMeA][Phe(4-F)][NMeA][Phe(4-Cl)][dPip]P)), less than 1000 nM; in that of `CC(C)C[C@@H]1NC(=O)[C@H](Cc2c[nH]c3cc(Cl)ccc23)NC(=O)[C@H](CCC(=O)O)NC(=O)[C@H](Cc2ccccc2)NC(=O)[C@@H]2CCCN2C(=O)[C@H]2CCCN2C(=O)[C@H](Cc2ccccc2)NC(=O)[C@H](CCC(=O)O)NC(=O)[C@H](Cc2c[nH]c3ccccc23)NC(=O)[C@H](CC(=O)O)NC1=O` [Compound 1, [H]OC(=O)CC[C@@H]1NC(=O)[C@H](Cc2cn([H])c3ccccc23)NC(=O)[C@H](CC(=O)O[H])NC(=O)[C@H](CC(C)C)NC(=O)[C@H](Cc2c[nH]c3cc(Cl)ccc23)NC(=O)[C@H](CCC(=O)O[H])NC(=O)[C@H](Cc2ccccc2)NC(=O)[C@@H]2CCCN2C(=O)[C@H]2CCCN2C(=O)[C@H](Cc2ccccc2)NC1=O] (cyclo(FE[Trp(6-Cl)]LDWEF[dP]P)), less than 1000 nM.

`C[C@H]1C(=O)N[C@@H](Cc2ccc(F)cc2)C(=O)N[C@@H](C(C)(C)C)C(=O)N[C@@H](Cc2ccc(Cl)cc2)C(=O)N2CCCC[C@@H]2C(=O)N2CCC[C@H]2C(=O)N[C@@H](Cc2ccccc2)C(=O)N2CC(C2)C(=O)N[C@@H](Cc2cccnc2)C(=O)N2CCC[C@@H]2C(=O)N1C` [Compound 19, C[C@@H]1N(C)C(=O)[C@H]2CCCN2C(=O)[C@H](Cc2cccnc2)NC(=O)C2CN(C2)C(=O)[C@H](Cc2ccccc2)NC(=O)[C@@H]2CCCN2C(=O)[C@H]2CCCCN2C(=O)[C@H](Cc2ccc(Cl)cc2)NC(=O)[C@@H](NC(=O)[C@H](Cc2ccc(F)cc2)NC1=O)C(C)(C)C] (cyclo([3Pal][dP][NMeA][Phe(4-F)][Tle][Phe(4-Cl)][dPip]PF[Azetidine3carboxylic])): the IC50 is less than 1000 nM.
